The values that follow come from patent US9000029B2, “Proline sulfonamide derivatives as orexin receptor antagonists” (Actelion Pharmaceuticals Ltd., priority 2010, dated 2015).

One test addresses human orexin-2 receptor (Homo sapiens (Human), UniProt O43614). In words: Intracellular calcium measurements (FLIPR), antagonism of orexin-A response. It counts as cell-based. The conditions noted are these: CHO cells, 3 nM orexin-A, read-out: IC50 Ox2. The procedure:
(§1) In Vitro Assay: Intracellular Calcium Measurements:
(§2) Chinese hamster ovary (CHO) cells expressing the human orexin-1 receptor and the human orexin-2 receptor, respectively, are grown in culture medium (Ham F-12 with L-Glutamine) containing 300 μg/ml G418, 100 U/ml penicillin, 100 μg/ml streptomycin and 10% heat inactivated fetal calf serum (FCS). The cells are seeded at 20'000 cells/well into 384-well black clear bottom sterile plates (Greiner). The seeded plates are incubated overnight at 37° C. in 5% CO2.
(§3) Human orexin-A as an agonist is prepared as 1 mM stock solution in MeOH: water (1:1), diluted in HBSS containing 0.1% bovine serum albumin (BSA), NaHCO3: 0.375 g/l and 20 mM HEPES for use in the assay at a final concentration of 3 nM.
(§4) Antagonists are prepared as 10 mM stock solution in DMSO, then diluted in 384-well plates using DMSO followed by a transfer of the dilutions into in HBSS containing 0.1% bovine serum albumin (BSA), NaHCO3: 0.375 g/l and 20 mM HEPES. On the day of the assay, 50 μl of staining buffer (HBSS containing 1% FCS, 20 mM HEPES, NaHCO3: 0.375 g/l, 5 mM probenecid (Sigma) and 3 μM of the fluorescent calcium indicator fluo-4 AM (1 mM stock solution in DMSO, containing 10% pluronic) is added to each well. The 384-well cell-plates are incubated for 50 min at 37° C. in 5% CO2 followed by equilibration at RT for 30 min before measurement.
(§5) Within the Fluorescent Imaging Plate Reader (FLIPR Tetra, Molecular Devices), antagonists are added to the plate in a volume of 10 μl/well, incubated for 10 min or (where explicitly indicated) for 120 min and finally 10 μl/well of agonist is added. Fluorescence is measured for each well at 1 second intervals, and the height of each fluorescence peak is compared to the height of the fluorescence peak induced by 3 nM orexin-A with vehicle in place of antagonist. The IC50 value (the concentration of compound needed to inhibit 50% of the agonistic response) is determined and may be normalized using the obtained IC50 value of a on-plate reference compound. Optimized conditions were achieved by adjustment of pipetting speed and cell splitting regime. The calculated IC50 values may fluctuate depending on the daily cellular assay performance. Fluctuations of this kind are known to those skilled in the art.
In general terms: A change in cytosolic calcium serves as a functional read-out for many receptors and channels.

The target in the next test is human orexin-1 receptor (Homo sapiens (Human), UniProt O43613). The description is as above. It counts as cell-based. The conditions noted are these: CHO cells, 3 nM orexin-A, read-out: IC50 Ox1. Here is the method:
as §1, §2, §3, §4, §5

Where [1] appears, read: compound incubation time of 120 min.

Read-outs that look alike come from different tables or passages of the source.

As usually defined, the IC50 is the concentration that inhibits the measured activity by half.

Sequence of human orexin-1 receptor (O43613 whole entry): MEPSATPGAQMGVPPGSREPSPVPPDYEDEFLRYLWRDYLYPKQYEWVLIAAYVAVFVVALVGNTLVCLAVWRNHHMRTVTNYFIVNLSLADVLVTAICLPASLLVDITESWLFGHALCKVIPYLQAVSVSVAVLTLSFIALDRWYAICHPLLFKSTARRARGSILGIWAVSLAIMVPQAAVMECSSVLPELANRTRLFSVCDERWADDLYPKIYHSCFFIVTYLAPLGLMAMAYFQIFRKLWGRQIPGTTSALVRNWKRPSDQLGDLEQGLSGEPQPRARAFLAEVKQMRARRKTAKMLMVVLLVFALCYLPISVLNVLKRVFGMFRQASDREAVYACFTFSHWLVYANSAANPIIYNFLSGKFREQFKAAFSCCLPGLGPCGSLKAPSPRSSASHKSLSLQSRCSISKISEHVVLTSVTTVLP
Sequence of human orexin-2 receptor (O43614 whole entry): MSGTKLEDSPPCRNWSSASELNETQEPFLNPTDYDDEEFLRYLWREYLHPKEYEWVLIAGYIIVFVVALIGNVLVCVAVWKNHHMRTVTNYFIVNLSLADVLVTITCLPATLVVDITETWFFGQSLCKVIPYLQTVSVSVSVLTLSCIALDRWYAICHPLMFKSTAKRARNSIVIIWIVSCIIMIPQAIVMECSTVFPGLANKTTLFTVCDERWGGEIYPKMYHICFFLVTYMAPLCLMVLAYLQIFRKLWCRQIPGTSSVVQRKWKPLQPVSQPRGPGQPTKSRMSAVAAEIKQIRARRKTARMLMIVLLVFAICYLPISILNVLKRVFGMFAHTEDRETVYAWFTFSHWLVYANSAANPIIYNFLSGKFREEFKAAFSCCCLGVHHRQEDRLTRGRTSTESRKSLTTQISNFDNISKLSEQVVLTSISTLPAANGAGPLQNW

Turning to `Cc1cc(C)cc(NC(=O)[C@@H]2CCCN2S(=O)(=O)c2ccc(C)cc2C)c1` [Example 56, (S)-1-(2,4-Dimethyl-benzenesulfonyl)-pyrrolidine-2-carboxylic acid (3,5-dimethyl-phenyl)-amide], the results for the IC50 at human orexin-2 receptor (setting [1]) and at human orexin-1 receptor (setting [1]) were 0.108 µM and 0.211 µM, respectively.
For the molecule `COc1ccc(S(=O)(=O)N2CCC[C@H]2C(=O)Nc2cccc(Cl)c2)cc1` [Example 18, (S)-1-(4-Methoxy-benzenesulfonyl)-pyrrolidine-2-carboxylic acid (3-chloro-phenyl)-amide], the IC50 on human orexin-2 receptor (compound incubation 10 min) came out at 0.031 µM; on human orexin-1 receptor (compound incubation 10 min) it was 0.083 µM.
Turning to `COc1ccc(S(=O)(=O)N2CCC[C@H]2C(=O)Nc2ccc(C)c(C)c2)cc1` [Example 23, (S)-1-(4-Methoxy-benzenesulfonyl)-pyrrolidine-2-carboxylic acid (3,4-dimethyl-phenyl)-amide], the IC50 on human orexin-2 receptor (compound incubation 10 min) was 0.029 µM; on human orexin-1 receptor (compound incubation 10 min) it was 0.174 µM.
On to `COc1ccc(S(=O)(=O)N2CCC[C@H]2C(=O)Nc2cccc(C)c2)cc1` [Example 20, (S)-1-(4-Methoxy-benzenesulfonyl)-pyrrolidine-2-carboxylic acid m-tolylamide], for which the IC50 turned out to be 0.017 µM on human orexin-2 receptor (compound incubation 10 min) and 0.214 µM on human orexin-1 receptor (compound incubation 10 min).
Turning to `Cc1cc(C)cc(NC(=O)[C@@H]2CCCN2S(=O)(=O)c2ccc(Br)cc2)c1` [Example 41, (S)-1-(4-Bromo-benzenesulfonyl)-pyrrolidine-2-carboxylic acid (3,5-dimethyl-phenyl)-amide], the IC50 at human orexin-2 receptor (setting [1]) was found to be 0.049 µM; on human orexin-1 receptor (setting [1]) it was 0.079 µM.
In the case of `COc1ccc(S(=O)(=O)N2CCC[C@H]2C(=O)Nc2cccc(OC)c2)cc1` [Example 21, (S)-1-(4-Methoxy-benzenesulfonyl)-pyrrolidine-2-carboxylic acid (3-methoxy-phenyl)-amide], the values for the IC50 on human orexin-2 receptor (compound incubation 10 min) and on human orexin-1 receptor (compound incubation 10 min) were 0.047 µM and 0.182 µM, respectively.
For `CSc1cccc(NC(=O)[C@@H]2CCCN2S(=O)(=O)c2ccc(Br)s2)c1` [Example 1, (S)-1-(5-Bromo-thiophene-2-sulfonyl)-pyrrolidine-2-carboxylic acid (3-methylsulfanyl-phenyl)-amide], the IC50 on human orexin-2 receptor (compound incubation 10 min) came out at 0.01 µM; on human orexin-1 receptor (compound incubation 10 min), 0.02 µM.
Regarding `COc1ccc(S(=O)(=O)N2CCC[C@H]2C(=O)Nc2cc(C)ccc2F)cc1` [Example 38, (S)-1-(4-Methoxy-benzenesulfonyl)-pyrrolidine-2-carboxylic acid (2-fluoro-5-methyl-phenyl)-amide], the IC50 on human orexin-2 receptor (compound incubation 10 min) stood at 0.026 µM; at human orexin-1 receptor (compound incubation 10 min) it was 0.304 µM.
For the molecule `Cc1cc(C)cc(NC(=O)[C@@H]2CCCN2S(=O)(=O)c2cc(C)c(Cl)cc2C)c1` [Example 55, (S)-1-(4-Chloro-2,5-dimethyl-benzenesulfonyl)-pyrrolidine-2-carboxylic acid (3,5-dimethyl-phenyl)-amide], the results for the IC50 at human orexin-2 receptor (setting [1]) and at human orexin-1 receptor (setting [1]) were 0.171 µM and 0.234 µM, respectively.
Turning to `COc1ccc(S(=O)(=O)N2CCC[C@H]2C(=O)Nc2cccc(SC)c2)cc1OC` [Example 10, (S)-1-(3,4-Dimethoxy-benzenesulfonyl)-pyrrolidine-2-carboxylic acid (3-methylsulfanyl-phenyl)-amide], the results for the IC50 at human orexin-2 receptor (compound incubation 10 min) and on human orexin-1 receptor (compound incubation 10 min) were 0.003 µM and 0.057 µM, respectively.
Consider `CSc1cccc(NC(=O)[C@@H]2CCCN2S(=O)(=O)c2cccc(Br)c2)c1` [Example 11, (S)-1-(3-Bromo-benzenesulfonyl)-pyrrolidine-2-carboxylic acid (3-methylsulfanyl-phenyl)-amide], for which the half-maximal inhibitory concentration (IC50) was 0.002 µM on human orexin-2 receptor (compound incubation 10 min) and 0.007 µM on human orexin-1 receptor (compound incubation 10 min).
With `COc1ccc(S(=O)(=O)N2CCC[C@H]2C(=O)Nc2cc(C)ccc2Cl)cc1` [Example 28, (S)-1-(4-Methoxy-benzenesulfonyl)-pyrrolidine-2-carboxylic acid (2-chloro-5-methyl-phenyl)-amide], the IC50 on human orexin-2 receptor (compound incubation 10 min) is 0.224 µM; at human orexin-1 receptor (compound incubation 10 min), 0.305 µM.
With `CSc1cccc(NC(=O)[C@@H]2CCCN2S(=O)(=O)c2ccc(Cl)cc2)c1` [Example 9, (S)-1-(4-Chloro-benzenesulfonyl)-pyrrolidine-2-carboxylic acid (3-methylsulfanyl-phenyl)-amide], the IC50 was determined as 0.009 µM on human orexin-2 receptor (compound incubation 10 min) and 0.015 µM at human orexin-1 receptor (compound incubation 10 min).
On to `Cc1cc(C)cc(NC(=O)[C@@H]2CCCN2S(=O)(=O)c2cccc3ccccc23)c1` [Example 42, (S)-1-(Naphthalene-1-sulfonyl)-pyrrolidine-2-carboxylic acid (3,5-dimethyl-phenyl)-amide], for which the IC50 came out at 0.026 µM at human orexin-2 receptor (setting [1]) and 0.216 µM on human orexin-1 receptor (setting [1]).
As to `CCCc1ccc(S(=O)(=O)N2CCC[C@H]2C(=O)Nc2cccc(SC)c2)cc1` [Example 4, (S)-1-(4-Propyl-benzenesulfonyl)-pyrrolidine-2-carboxylic acid (3-methylsulfanyl-phenyl)-amide], the IC50 at human orexin-2 receptor (compound incubation 10 min) was 0.047 µM; at human orexin-1 receptor (compound incubation 10 min) it was 0.091 µM.
`C=Cc1ccc(S(=O)(=O)N2CCC[C@H]2C(=O)Nc2cc(C)cc(C)c2)cc1` [Example 47, (S)-1-(4-Vinyl-benzenesulfonyl)-pyrrolidine-2-carboxylic acid (3,5-dimethyl-phenyl)-amide]: the IC50 was determined as 0.092 µM on human orexin-2 receptor (setting [1]) and 0.189 µM on human orexin-1 receptor (setting [1]).
For the molecule `Cc1cc(C)cc(NC(=O)[C@@H]2CCCN2S(=O)(=O)c2ccc(Br)cc2Cl)c1` [Example 58, (S)-1-(4-Bromo-2-chloro-benzenesulfonyl)-pyrrolidine-2-carboxylic acid (3,5-dimethyl-phenyl)-amide], the results for the IC50 on human orexin-2 receptor (setting [1]) and at human orexin-1 receptor (setting [1]) were 0.106 µM and 0.179 µM, respectively.
On to `COc1ccc(S(=O)(=O)N2CCC[C@H]2C(=O)Nc2cccc(C(F)(F)F)c2)cc1` [Example 17, (S)-1-(4-Methoxy-benzenesulfonyl)-pyrrolidine-2-carboxylic acid (3-trifluoromethyl-phenyl)-amide], for which the IC50 stood at 0.009 µM on human orexin-2 receptor (compound incubation 10 min) and 0.055 µM at human orexin-1 receptor (compound incubation 10 min).
Take `CSc1cccc(NC(=O)[C@@H]2CCCN2S(=O)(=O)c2cccc(Cl)c2)c1` [Example 7, (S)-1-(3-Chloro-benzenesulfonyl)-pyrrolidine-2-carboxylic acid (3-methylsulfanyl-phenyl)-amide]: the figures for the IC50 on human orexin-2 receptor (compound incubation 10 min) and at human orexin-1 receptor (compound incubation 10 min) were 0.002 µM and 0.008 µM, respectively.
Take `COc1ccc(S(=O)(=O)N2CCC[C@H]2C(=O)Nc2ccc3c(c2)CCC3)cc1` [Example 33, (S)-1-(4-Methoxy-benzenesulfonyl)-pyrrolidine-2-carboxylic acid indan-5-ylamide]: the IC50 turned out to be 0.012 µM on human orexin-2 receptor (compound incubation 10 min) and 0.129 µM on human orexin-1 receptor (compound incubation 10 min).
Consider `CSc1cccc(NC(=O)[C@@H]2CCCN2S(=O)(=O)c2ccc(C(F)(F)F)cc2)c1` [Example 8, (S)-1-(4-Trifluoromethyl-benzenesulfonyl)-pyrrolidine-2-carboxylic acid (3-methylsulfanyl-phenyl)-amide], for which the IC50 was 0.017 µM at human orexin-2 receptor (compound incubation 10 min) and 0.063 µM on human orexin-1 receptor (compound incubation 10 min).
In the case of `Cc1cc(C)cc(NC(=O)[C@@H]2CCCN2S(=O)(=O)c2ccc(Cl)c(C(F)(F)F)c2)c1` [Example 53, (S)-1-(4-Chloro-3-trifluoromethyl-benzenesulfonyl)-pyrrolidine-2-carboxylic acid (3,5-dimethyl-phenyl)-amide], the results for the IC50 on human orexin-2 receptor (setting [1]) and on human orexin-1 receptor (setting [1]) were 0.019 µM and 0.048 µM, respectively.
Take `COc1ccc(S(=O)(=O)N2CCC[C@H]2C(=O)Nc2ccc(Cl)c(C)c2)cc1` [Example 39, (S)-1-(4-Methoxy-benzenesulfonyl)-pyrrolidine-2-carboxylic acid (4-chloro-3-methyl-phenyl)-amide]: the figures for the IC50 at human orexin-2 receptor (compound incubation 10 min) and at human orexin-1 receptor (compound incubation 10 min) were 0.018 µM and 0.235 µM, respectively.
`O=C(Nc1cccc(OC(F)(F)F)c1)[C@@H]1CCCN1S(=O)(=O)c1ccc(Br)s1` [Example 2, (S)-1-(5-Bromo-thiophene-2-sulfonyl)-pyrrolidine-2-carboxylic acid (3-trifluoromethoxy-phenyl)-amide]: the IC50 on human orexin-2 receptor (compound incubation 10 min) is 0.104 µM; at human orexin-1 receptor (compound incubation 10 min), 0.149 µM.
The corresponding values for `CSc1cccc(NC(=O)[C@@H]2CCCN2S(=O)(=O)c2ccc(Br)cc2)c1` [Example 13, (S)-1-(4-Bromo-benzenesulfonyl)-pyrrolidine-2-carboxylic acid (3-methylsulfanyl-phenyl)-amide] are 0.01 µM and 0.022 µM.
The corresponding values for `CSc1cccc(NC(=O)[C@@H]2CCCN2S(=O)(=O)c2ccc(C)c(Cl)c2)c1` [Example 12, (S)-1-(3-Chloro-4-methyl-benzenesulfonyl)-pyrrolidine-2-carboxylic acid (3-methylsulfanyl-phenyl)-amide] are 0.003 µM and 0.005 µM.
